Experimental data reported in ChEMBL document CHEMBL6153161, “Exploring Arylidene-Indolinone Ligands of Autophagy Proteins LC3B and GABARAP” (ACS Med Chem Lett, 2025).

Assays:
[1] = Inhibition of GABARAP (unknown origin) expressed in Escherichia coli BL21(DE3) incubated for 45 mins by AlphaScreen assay; design: species or system Homo sapiens
[2] = biological target: T1, Microtubule-associated protein 1 light chain 3 beta (Homo sapiens, UniProt Q9GZQ8); experiment: Inhibition of LC3B (unknown origin) expressed in Escherichia coli BL21(DE3) incubated for 45 mins by AlphaScreen assay
[3] = Binding affinity to GABARAP (unknown origin) assessed as dissociation constant by biolayer interferometry analysis; design: species or system Homo sapiens
[4] = biological target: T1, Microtubule-associated protein 1 light chain 3 beta; experiment: Binding affinity against recombinant LC3B (unknown origin) assessed as dissociation constant by small molecule microarray with a scanning oblique-incidence reflectivity difference microscopic analysis
[5] = biological target: T1, Microtubule-associated protein 1 light chain 3 beta; experiment: Binding affinity against recombinant LC3B (unknown origin) assessed as dissociation constant by 2D-NMR titration assay
[6] = system: Bacteria; experiment: Inhibition of beta-lactamase (unknown origin) at up to 25 uM incubated for 15 mins by beta-lactamase assay
[7] = biological target: T1, Microtubule-associated protein 1 light chain 3 beta; experiment: Binding affinity against recombinant LC3B (unknown origin) assessed as dissociation constant by surface plasmon resonance assay

Row | SMILES | IC50 [1] [µM] | IC50 [2] [µM] | further results
1 | O=C1Nc2ccc(I)cc2/C1=C\c1cncs1 | > 3.5 | > 3.5 | 
2 | O=C1Nc2ccc(I)cc2/C1=C\c1ccc[nH]1 | > 1.8 | > 1.8 | 
3 | O=C1Nc2ccccc2/C1=C\c1cc(Br)c(O)c(Br)c1 | 175 | 176 | 
4 | COc1ccc(/C=C2/C(=O)Nc3ccc(I)cc32)cc1 | > 11 | > 11 | 
5 | O=C1Nc2ccc(I)cc2/C1=C\c1ccc(C(=O)O)cc1 | 75 | 119 | 
6 | O=C1Nc2ccc(I)cc2/C1=C\c1ccccc1 | > 25 |  | 
7 | Cc1ncsc1/C=C1/C(=O)Nc2ccc(I)cc21 | > 14 |  | 
8 | O=C1Nc2ccc(I)cc2/C1=C\c1cnc[nH]1 | > 70 |  | 
9 | O=C1Nc2ccc(Br)cc2/C1=C\c1cc(Br)c(O)c(Br)c1 | 13 |  | 
10 | Cc1ccc2c(c1)NC(=O)/C2=C/c1cc(Br)c(O)c(Br)c1 | 24 |  | 
11 | CC(C)C[C@H](NC(=O)[C@H](Cc1c[nH]cn1)NC(=O)[C@H](CCC(=O)O)NC(=O)[C@H](Cc1c[nH]c2ccccc12)NC(=O)[C@@H](NC(=O)[C@H](Cc1ccc(O)cc1)NC(=O)[C@@H](NC(=O)[C@H](C)NC(=O)[C@H](CC(=O)O)NC(=O)CCCC[C@@H]1SC[C@@H]2NC(=O)N[C@@H]21)[C@@H](C)O)[C@@H](C)O)C(=O)N[C@@H](C)C(=O)N[C@@H](Cc1c[nH]c2ccccc12)C(=O)N1CCC[C@H]1C(=O)O | 0.055 |  | Kd [3]: 0.055 µM
12 | O=C1Nc2ccc(I)cc2/C1=C\c1cccc2nccn12 | > 12.5 | > 12.5 | 
13 | O=C1Nc2cc(Cl)c(Cl)cc2/C1=C\c1cc(Br)c(O)c(Br)c1 | > 25 |  | 
14 | O=C1Nc2ccc(I)cc2/C1=C\c1cc(Br)c(O)c(Br)c1 | 9.1 | 4.4 | Kd [4]: 0.468 µM; Kd [5]: > 200 µM; inhibition [6]: No effect; Kd [7]: 8.9 µM
15 | O=C1Nc2ccc(I)cc2/C1=C\c1ccc(-c2ccc(C(F)(F)F)cc2)cc1 | > 1 | > 1 | 
16 | O=C1Nc2ccc(I)cc2/C1=C\c1cc(Br)cc(Br)c1 | > 6.4 |  | 
17 | COC(=O)c1ccc2c(c1)NC(=O)/C2=C/c1cc(Br)c(O)c(Br)c1 | 5.7 |  | 
18 | O=C1Nc2cc(I)ccc2/C1=C\c1cc(Br)c(O)c(Br)c1 | 12 |  | 
19 | O=C1Nc2ccc(I)cc2/C1=C\c1ccc(O)cc1 | > 10 | > 10 | 
20 | O=C1Nc2ccc(I)cc2/C1=C\c1cc(Br)cc(Br)c1O | 15 |  | 
